From ChEMBL document CHEMBL1201862, “PubChem BioAssay data set” (2004)
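Results reflect a 48-hour exposure of cells in 96-well plates to compound at five concentrations. At the GI50, growth is halved.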 Calls of active or inactive are those of the source. Rule as the data show it: active = GI50 up to about 1.1 µM and inactive = higher.

Columns and labels:
Test in all cases: DTP human tumour cell line panel, 48 h
786-0 = tested on: 786-0
A498 = tested on: A498
A549 = tested on: A549
ACHN = tested on: ACHN
CAKI-1 = tested on: CAKI-1
CCRF-CEM = tested on: CCRF-CEM
COLO 205 = tested on: COLO 205
DLD-1 = tested on: DLD-1
DMS-114 = tested on: DMS-114
DMS-273 = tested on: DMS-273
EKVX = tested on: EKVX
HCC 2998 = tested on: HCC 2998
HCT-116 = tested on: HCT-116
HCT-15 = tested on: HCT-15
HL-60 = tested on: HL-60
HOP-18 = tested on: HOP-18
HOP-62 = tested on: HOP-62
HOP-92 = tested on: HOP-92
HT-29 = tested on: HT-29
IGROV-1 = tested on: IGROV-1
K562 = tested on: K562
KM-20L2 = tested on: KM-20L2
KM12 = tested on: KM12
LOX IMVI = tested on: LOX IMVI
LXFL 529 = tested on: LXFL 529
M14 = tested on: M14
M19-MEL = tested on: M19-MEL
MOLT-4 = tested on: MOLT-4
Malme-3M = tested on: Malme-3M
NCI-H226 = tested on: NCI-H226
NCI-H23 = tested on: NCI-H23
NCI-H460 = tested on: NCI-H460
NCI-H522 = tested on: NCI-H522
OVCAR-3 = tested on: OVCAR-3
OVCAR-4 = tested on: OVCAR-4
OVCAR-8 = tested on: OVCAR-8
RXF 393 = tested on: RXF 393
SF-268 = tested on: SF-268
SF-295 = tested on: SF-295
SF-539 = tested on: SF-539
SK-MEL-28 = tested on: SK-MEL-28
SK-MEL-2 = tested on: SK-MEL-2
SK-MEL-5 = tested on: SK-MEL-5
SK-OV-3 = tested on: SK-OV-3
SN12C = tested on: SN12C
SNB-19 = tested on: SNB-19
SNB-75 = tested on: SNB-75
SR = tested on: SR
SW-620 = tested on: SW-620
TK-10 = tested on: TK-10
U-251 = tested on: U-251
UACC-257 = tested on: UACC-257
UACC-62 = tested on: UACC-62
UO-31 = tested on: UO-31
SNB-78 = tested on: SNB-78
OVCAR-5 = tested on: OVCAR-5
RPMI-8226 = tested on: RPMI-8226
XF498 = tested on: XF498

Measured: GI50

COC(=O)c1ccc(NC(=O)c2cc(OC)c(OC)c(OC)c2)cc1
1.08 µM: HCT-15
inactive: A498 3.44 µM | A549 3.38 µM | ACHN 2.71 µM | CAKI-1 2.16 µM | CCRF-CEM 3.73 µM | DLD-1 4.69 µM | EKVX 38.4 µM | HCC 2998 1.99 µM | HL-60 2.09 µM | HOP-18 49.4 µM | HOP-62 7.6 µM | HOP-92 6.65 µM | HT-29 1.35 µM | IGROV-1 3.17 µM | K562 1.97 µM | KM-20L2 1.44 µM | LOX IMVI 9.31 µM | LXFL 529 1.64 µM | M14 4.28 µM | MOLT-4 3.93 µM | NCI-H226 2.54 µM | NCI-H460 2.23 µM | OVCAR-4 18.9 µM | OVCAR-8 12.2 µM | RXF 393 39.4 µM | SF-268 8.05 µM | SF-539 1.21 µM | SK-OV-3 11.3 µM | SN12C 1.85 µM | SNB-75 42.1 µM | SR 1.36 µM | TK-10 2.34 µM | UO-31 2.05 µM
active: 786-0 0.859 µM | COLO 205 0.211 µM | DMS-114 0.305 µM | DMS-273 0.327 µM | HCT-116 0.948 µM | KM12 1.02 µM | M19-MEL 1.04 µM | Malme-3M 0.644 µM | NCI-H23 0.0279 µM | NCI-H522 0.836 µM | OVCAR-3 1.08 µM | SF-295 0.8 µM | SK-MEL-28 0.798 µM | SK-MEL-2 0.798 µM | SK-MEL-5 0.195 µM | SNB-19 1 µM | SW-620 0.955 µM | U-251 0.236 µM | UACC-257 0.0215 µM | UACC-62 1.09 µM

CCOC(=O)N1CCC(N[C@@H]2c3cc4c(cc3[C@@H](c3cc(OC)c(O)c(OC)c3)[C@H]3C(=O)OC[C@@H]32)OCO4)CC1
inactive: COLO 205 6 µM | DLD-1 6.68 µM | EKVX 1.97 µM | HCT-116 2.7 µM | HT-29 2.63 µM | IGROV-1 2.95 µM | K562 2 µM | KM12 2.07 µM | LXFL 529 6.78 µM | M14 1.5 µM | M19-MEL 2.07 µM | Malme-3M 1.79 µM | OVCAR-3 6.12 µM | OVCAR-8 2.18 µM | SF-268 2.73 µM | SK-MEL-28 9.29 µM | SK-MEL-2 6.03 µM | SNB-75 2.18 µM | SNB-78 16 µM | SW-620 2.19 µM | UACC-257 6.55 µM
0.771 µM: HCT-15
active: 786-0 0.764 µM | A498 0.262 µM | ACHN 0.289 µM | CAKI-1 0.647 µM | CCRF-CEM 0.465 µM | HOP-62 0.853 µM | HOP-92 0.895 µM | LOX IMVI 1.01 µM | NCI-H23 0.501 µM | NCI-H460 0.0352 µM | SF-295 0.597 µM | SK-MEL-5 1.12 µM | SK-OV-3 0.966 µM | SNB-19 1.05 µM | U-251 1 µM | UACC-62 0.771 µM | UO-31 1.08 µM

COc1ccc(C2S/C(=C\c3ccccc3O)C(=O)N2NC(=O)Cc2ccccc2)cc1 (stereo unspecified)
> 100 µM: HCT-15
inactive: 786-0 > 100 µM | A498 > 100 µM | A549 98.6 µM | ACHN > 100 µM | CAKI-1 > 100 µM | CCRF-CEM 48.5 µM | COLO 205 > 100 µM | DLD-1 > 100 µM | DMS-114 74.5 µM | DMS-273 > 100 µM | HCT-116 38.2 µM | HL-60 60.5 µM | HOP-18 > 100 µM | HOP-62 > 100 µM | HOP-92 > 100 µM | HT-29 > 100 µM | IGROV-1 > 100 µM | K562 68.5 µM | KM12 > 100 µM | LOX IMVI > 100 µM | LXFL 529 93.1 µM | M14 > 100 µM | M19-MEL > 100 µM | MOLT-4 39.5 µM | Malme-3M > 100 µM | NCI-H226 > 100 µM | NCI-H23 > 100 µM | NCI-H460 > 100 µM | NCI-H522 > 100 µM | OVCAR-4 > 100 µM | OVCAR-5 > 100 µM | OVCAR-8 83.2 µM | RPMI-8226 48.5 µM | RXF 393 61.7 µM | SF-268 > 100 µM | SF-295 > 100 µM | SF-539 > 100 µM | SK-MEL-28 40.3 µM | SK-MEL-2 > 100 µM | SK-MEL-5 > 100 µM | SK-OV-3 > 100 µM | SN12C > 100 µM | SNB-75 57.3 µM | SR 37.4 µM | SW-620 > 100 µM | TK-10 > 100 µM | U-251 > 100 µM | UACC-257 > 100 µM | UACC-62 78.7 µM | UO-31 > 100 µM

CCCOP1(=O)C=C(O)C(Cl)=C(C)C1 (stereo unspecified)
> 100 µM: HCT-15
inactive: 786-0 > 100 µM | A549 > 100 µM | ACHN > 100 µM | CCRF-CEM > 100 µM | COLO 205 > 100 µM | DLD-1 > 100 µM | DMS-273 > 100 µM | EKVX > 100 µM | HCC 2998 > 100 µM | HCT-116 > 100 µM | HL-60 > 100 µM | HOP-62 > 100 µM | HOP-92 > 100 µM | HT-29 > 100 µM | IGROV-1 > 100 µM | K562 > 100 µM | KM-20L2 > 100 µM | KM12 41.2 µM | LOX IMVI > 100 µM | LXFL 529 > 100 µM | M14 > 100 µM | M19-MEL > 100 µM | MOLT-4 > 100 µM | Malme-3M > 100 µM | NCI-H226 > 100 µM | NCI-H23 > 100 µM | NCI-H460 > 100 µM | NCI-H522 > 100 µM | OVCAR-3 > 100 µM | OVCAR-4 > 100 µM | OVCAR-8 > 100 µM | RXF 393 > 100 µM | SF-268 > 100 µM | SF-295 > 100 µM | SF-539 > 100 µM | SK-MEL-28 > 100 µM | SK-MEL-2 40.6 µM | SK-MEL-5 > 100 µM | SK-OV-3 > 100 µM | SN12C > 100 µM | SNB-19 > 100 µM | SNB-75 > 100 µM | SNB-78 > 100 µM | SR > 100 µM | SW-620 > 100 µM | TK-10 > 100 µM | U-251 > 100 µM | UACC-257 > 100 µM | UACC-62 > 100 µM | UO-31 > 100 µM | XF498 > 100 µM

COC(=O)C(CC(=O)Nc1ccc(Cl)c(Cl)c1)C(=O)C(=O)NC1C2CC3CC(C2)CC1C3 (stereo unspecified)
inactive: 786-0 > 100 µM | A498 > 100 µM | A549 > 100 µM | ACHN > 100 µM | CAKI-1 > 100 µM | CCRF-CEM > 100 µM | COLO 205 > 100 µM | DMS-114 > 100 µM | DMS-273 > 100 µM | EKVX 54.6 µM | HCC 2998 > 100 µM | HCT-116 > 100 µM | HL-60 > 100 µM | HOP-18 78.3 µM | HOP-62 > 100 µM | HOP-92 > 100 µM | HT-29 > 100 µM | IGROV-1 > 100 µM | K562 > 100 µM | KM-20L2 > 100 µM | KM12 > 100 µM | LOX IMVI > 100 µM | LXFL 529 > 100 µM | M14 > 100 µM | M19-MEL > 100 µM | MOLT-4 > 100 µM | Malme-3M > 100 µM | NCI-H226 > 100 µM | NCI-H23 > 100 µM | NCI-H460 > 100 µM | NCI-H522 > 100 µM | OVCAR-3 > 100 µM | OVCAR-4 > 100 µM | OVCAR-5 > 100 µM | OVCAR-8 > 100 µM | RPMI-8226 > 100 µM | RXF 393 > 100 µM | SF-268 > 100 µM | SF-295 > 100 µM | SF-539 > 100 µM | SK-MEL-28 > 100 µM | SK-MEL-2 > 100 µM | SK-MEL-5 > 100 µM | SK-OV-3 > 100 µM | SN12C > 100 µM | SNB-19 > 100 µM | SNB-78 > 100 µM | SR > 100 µM | SW-620 > 100 µM | TK-10 > 100 µM | U-251 > 100 µM | UACC-257 > 100 µM | UACC-62 92.7 µM | UO-31 > 100 µM
> 100 µM: HCT-15
